# Results reported in patent EP0937779A2, “Cell damage marker” (ORIENTAL YEAST CO., LTD., priority 1998, dated 1999).
# Read-outs that look alike come from different tables or passages of the source.
# Assays:
# Format in all cases: biochemical
# [1] = target: PGAM-M standard (based on pooled sera) (Homo sapiens, UniProt P15259); experiment: Effect of potassium tetrathionate on PGAM-M, automatic analysis method (NADH reduction rate assay)
# Procedure: (§1) The reagent 1 (R-1; 250 µl) was mixed with a culture medium sample (5 µl), and the resulting mixture was then left to stand for 5 minutes. By subsequently using the reagent 2 (R-2), the PGAM activity was assayed.
# (§2) Because the reagent 2 (R-2) contained glycerate-3-P (substrate), the reaction was initiated by adding 41 µl of the reagent 2. About 1.5 minutes after the addition of the reagent 2, the assay was started.
# (§3) By using an automatic analyzer of Hitachi 7150 and by presetting the assay code to RATE-A: 32-39 and the assay temperature to 37 °C, the decrease of absorbance A at 340 nm was determined on the basis of the reduction of NADH for about 1.5 minutes. Additionally, a sub-wave length was set at 405 nm for the determination. Furthermore, the value of a conventionally known cell damage marker LDH (lactate dehydrogenase) is shown concurrently.
# (§4) Prior to the assay of B-PGAM in the cell culture medium, the effect of potassium tetrathionate on PGAM-B and PGAM-M was examined by the automatic analysis method. As the sample, a type-B standard and a type-M standard (both based on pooled sera) were used. These standards were diluted with physiological saline to prepare 1/1 to 1/8 samples. Various concentrations of potassium tetrathionate were added to these samples for 5-min reaction, and subsequently, the amounts of the type-B and type-M PGAMs were determined by utilizing the automatic analysis method.
# (§5) By using the reagents of Example 2, the amounts of PGAM-B and PGAM-M were individually determined by the automatic analysis method, and the results are shown below in Table 4. […]
# [2] = target: PGAM-B standard (based on pooled sera) (Homo sapiens, UniProt P18669); experiment: Effect of potassium tetrathionate on PGAM-B, automatic analysis method (NADH reduction rate assay); conditions: for remaining activity at 1900 µM: final potassium tetrathionate concentration 1.9 mM; for remaining activity at 1900 µM / remaining activity at 3800 µM / remaining activity at 7600 µM: 5-min reaction, read-out: Effect of potassium tetrathionate over PGAM-B (residual activity, 0 mM = 100); for remaining activity at 3800 µM: final potassium tetrathionate concentration 3.8 mM; for remaining activity at 7600 µM: final potassium tetrathionate concentration 7.6 mM
# Procedure: as §1, §2, §3, §4, §5
# type-M isozyme = type-M isozyme (Homo sapiens, UniProt P15259); experiment: Inhibition experiment over purified PGAM isozymes, type-M; conditions: tetrathionic acid used as the PGAM inhibitor
# Text: (§6) The method for assaying PGAM in accordance with the invention will now be described about the case of the type-B isozyme. The method for assaying the type-B isozyme comprises treating a sample with a PGAM inhibitor to inactivate specific isozymes and assaying the remaining PGAM activity. […] By adding tetrathionic acid to serum to inactivate the type-M isozyme and subsequently assaying the residual PGAM activity, therefore, the type-B isozyme can be assayed separately.
# (§7) At an inhibition experiment over purified PGAM isozymes, only 50 % of the type-MB isozyme is inactivated through the treatment with tetrathionic acid, so 50 % of the activity remains. Because the PGAM activity in normal serum and brain tissue is nearly totally derived from the type-B isozyme in a practical sense, the residual activity of the type-MB isozyme is negligible in biological samples.
# type-B isozyme = type-B isozyme (Homo sapiens, UniProt P18669); experiment: Inhibition experiment over purified PGAM isozymes, type-B; conditions: tetrathionic acid used as the PGAM inhibitor
# Text: as §6, §7
# type-MB isozyme = type-MB isozyme (Homo sapiens, UniProt P15259); experiment: Inhibition experiment over purified PGAM isozymes, type-MB; conditions: treatment with tetrathionic acid
# Text: as §6, §7
# [3] = dilution ratio 1/1, 0 mM = 100 (183U/L)
# [4] = dilution ratio 1/2, 0 mM = 100 (91U/L)
# [5] = dilution ratio 1/4, 0 mM = 100 (46U/L)
# [6] = dilution ratio 1/8, 0 mM = 100 (22U/L)
# Sequence of PGAM-B standard (based on pooled sera) (P18669 whole entry): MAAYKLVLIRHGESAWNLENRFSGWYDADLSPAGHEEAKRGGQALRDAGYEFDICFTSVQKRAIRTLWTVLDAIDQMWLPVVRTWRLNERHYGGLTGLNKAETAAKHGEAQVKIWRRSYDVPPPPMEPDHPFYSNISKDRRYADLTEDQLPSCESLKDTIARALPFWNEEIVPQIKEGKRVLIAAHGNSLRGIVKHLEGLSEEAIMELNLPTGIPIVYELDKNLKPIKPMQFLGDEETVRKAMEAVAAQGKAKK
# Sequence of PGAM-M standard (based on pooled sera) (P15259 whole entry): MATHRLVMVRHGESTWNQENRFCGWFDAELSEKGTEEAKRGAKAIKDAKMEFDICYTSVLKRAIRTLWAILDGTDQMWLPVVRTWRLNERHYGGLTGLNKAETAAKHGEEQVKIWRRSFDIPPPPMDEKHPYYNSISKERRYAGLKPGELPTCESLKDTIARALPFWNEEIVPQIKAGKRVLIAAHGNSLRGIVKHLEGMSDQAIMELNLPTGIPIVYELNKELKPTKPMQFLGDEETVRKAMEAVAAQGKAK
# Sequence of type-B isozyme (P18669 whole entry): as the sequence (P18669 whole entry) above
# Sequence of type-MB isozyme (P15259 whole entry): as the sequence (P15259 whole entry) above
# Sequence of type-MB isozyme (P18669 whole entry, further chain): as the sequence (P18669 whole entry) above
# Sequence of type-M isozyme (P15259 whole entry): as the sequence (P15259 whole entry) above
SMILES,"remaining activity at 1900 µM ([1]; final potassium tetrathionate concentration 1.9 mM, dilution ratio 1/1, 5-min reaction, 0 mM = 100 (2727U/L), read-out: Effect of potassium tetrathionate over PGAM-M (residual activity, 0 mM = 100))","remaining activity at 3800 µM ([1]; final potassium tetrathionate concentration 3.8 mM, dilution ratio 1/1, 5-min reaction, 0 mM = 100 (2727U/L), read-out: Effect of potassium tetrathionate over PGAM-M (residual activity, 0 mM = 100))","remaining activity at 7600 µM ([1]; final potassium tetrathionate concentration 7.6 mM, dilution ratio 1/1, 5-min reaction, 0 mM = 100 (2727U/L), read-out: Effect of potassium tetrathionate over PGAM-M (residual activity, 0 mM = 100))",type-M isozyme inactivated with potassium tetrathionate (summary in words) ([1]; summary of Table 4),"remaining activity at 1900 µM [2, 3]","remaining activity at 1900 µM [2, 4]","remaining activity at 1900 µM [2, 5]","remaining activity at 1900 µM [2, 6]","remaining activity at 3800 µM [2, 3]","remaining activity at 3800 µM [2, 4]","remaining activity at 3800 µM [2, 5]","remaining activity at 3800 µM [2, 6]","remaining activity at 7600 µM [2, 3]","remaining activity at 7600 µM [2, 4]","remaining activity at 7600 µM [2, 5]","remaining activity at 7600 µM [2, 6]",type-B isozyme influenced by potassium tetrathionate (summary in words) ([2]; summary of Table 4),type-M isozyme inactivated (type-M isozyme),type-B isozyme inactivated (in words) (type-B isozyme),activity of the type-MB isozyme that remains (type-MB isozyme)
O=S(=O)([O-])SSS(=O)(=O)[O-].[K+].[K+] [potassium tetrathionate],0%,0%,0%,specifically inactivated,98%,98%,97%,93%,92%,91%,86%,93%,81%,80%,59%,75%,absolutely never influenced,–,–,–
O=S(=O)(O)SSS(=O)(=O)O [tetrathionic acid],–,–,–,–,–,–,–,–,–,–,–,–,–,–,–,–,–,~100%,hardly inactivated,50%
